Data reported in ChEMBL document CHEMBL1201862, “PubChem BioAssay data set” (2004).
Active and inactive are the calls of the source. Rule as the data show it: actives have a measured IC50 and inactives only a lower limit.

Target: Envelope glycoprotein gp160 (Human immunodeficiency virus 1, UniProt Q6QLK5)
Assay: inhibitors of HIV fusion peptide binding, primary screen, biochemical, uHTS, fluorescence dequenching (AID 1986)

Envelope glycoprotein gp160, sequence (Q6QLK5 whole entry, the tested form may be a part): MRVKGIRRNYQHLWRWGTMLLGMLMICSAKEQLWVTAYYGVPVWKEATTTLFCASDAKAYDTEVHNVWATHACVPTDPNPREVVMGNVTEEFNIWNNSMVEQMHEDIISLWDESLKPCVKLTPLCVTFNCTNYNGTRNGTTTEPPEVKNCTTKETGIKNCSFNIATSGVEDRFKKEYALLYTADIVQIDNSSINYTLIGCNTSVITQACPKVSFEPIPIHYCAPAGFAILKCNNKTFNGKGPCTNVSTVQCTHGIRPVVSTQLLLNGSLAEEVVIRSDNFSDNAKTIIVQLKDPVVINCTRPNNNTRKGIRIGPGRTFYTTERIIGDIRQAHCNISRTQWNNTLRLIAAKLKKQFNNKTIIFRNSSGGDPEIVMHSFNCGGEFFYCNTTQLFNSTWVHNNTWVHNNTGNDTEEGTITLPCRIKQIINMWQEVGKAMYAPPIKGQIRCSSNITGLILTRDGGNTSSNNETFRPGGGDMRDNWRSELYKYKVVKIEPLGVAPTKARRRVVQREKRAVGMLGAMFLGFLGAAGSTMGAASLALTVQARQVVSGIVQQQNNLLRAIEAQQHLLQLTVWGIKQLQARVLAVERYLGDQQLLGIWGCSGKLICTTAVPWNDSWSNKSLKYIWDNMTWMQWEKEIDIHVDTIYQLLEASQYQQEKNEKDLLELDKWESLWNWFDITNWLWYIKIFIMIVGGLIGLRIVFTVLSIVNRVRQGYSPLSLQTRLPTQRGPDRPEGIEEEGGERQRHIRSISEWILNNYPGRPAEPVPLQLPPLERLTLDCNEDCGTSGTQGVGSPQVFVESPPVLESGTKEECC

**Q.** CCS(=O)(=O)C1=NSC2=NC(=O)/C(=C\c3ccc(OS(=O)(=O)c4ccccc4)c(OC)c3)C(=N)N21 was tested. Which IC50 did it give?
**A.** 16.8 µM (active)

**Q.** For CCOc1ccc2nc(NC(=O)CSc3nc(O)c(C#N)c(-c4ccccc4)n3)sc2c1, which IC50 is on record?
**A.** 11.1 µM (active)

**Q.** For O=C(NN1C(=O)/C(=C/c2ccc(O)cc2)SC1=S)c1ccccc1O, which IC50 is on record?
**A.** 23.6 µM (active)
